Like-named read-outs stand apart in the source and are kept apart here.
What was measured:
[1] = tested on: subpanel of CRC cell lines; conditions: NCI DTD 60 cell line screen; cited from earlier work
DLD-1 = assay: MTT viability assay, DLD-1; assay type: cell-based, human; conditions: TP53 mutant, mean of six replicates of one experiment, read-out: IC50 Cancer Cell Lines (C) DLD-1
Procedure: (§1) HCT-116 (CCL-247), LoVo (CCL-229), DLD-1 (CCL-221), HT-29 (HTB-38) and CoN (CCD-841) human CRC cells were obtained from the ATCC (Manassas, VA, USA). HCT-116 cells were cultured in Dulbecco’s Modified Eagle’s Medium (DMEM; Corning Cellgro, Corning, NY, USA) for the invasion assays or RPMI-1640 medium (Lonza, Westburg, The Netherlands) for all other assays. The LoVo, DLD-1, and HT-29 cell lines were grown in RPMI-1640 for all experiments. Media were supplemented with 10% fetal bovine serum (FBS; Gibco, Waltham, MA, USA or Greiner Bio-One, Vilvoorde, Belgium), 100 U/mL penicillin, and 100 µg/mL streptomycin (Gibco, Waltham, MA). Cells were grown at 37 °C and 5% CO2 in a humidified atmosphere. The CoN cells were cultured in Eagle’s Minimum Essential Medium (Lonza, Westburg, The Netherlands) supplemented with 10% FBS (South America origin, Greiner Bio-One, Vilvoorde, Belgium). HCT-116 p53^-/- cells were obtained from Denis L.J. LaFontaine, Université Libre de Bruxelles, Brussels, Belgium.
(§2) Effects of compounds on viability were assessed by means of 3-(4,5-dimethylthiazol-2-yl)-2,5-diphenyltetrazolium bromide (MTT; Sigma-Aldrich, Diegem, Belgium) colorimetric assay as previously reported. Briefly, cells were seeded in flat-bottom 96-well plates at the appropriate cell density 24 h prior to the exposure or not to the compound of interest. Each compound was first solubilized in dimethylsulfoxide (DMSO) at 10^−2 M concentration and further diluted in a serial manner in the culture medium. Nine concentrations ranging from 10 nM to 100 µM were tested in sextuplicate within the assay. Evaluation of the cell viability was conducted after 72 h of exposure to the compound by means of MTT assay.

HCT-116^+/+ = assay: MTT viability assay, HCT-116+/+; assay type: cell-based, human; conditions: functional p53, mean of six replicates of one experiment, read-out: IC50 Cancer Cell Lines (C) HCT-116+/+
Procedure: as §1, §2

CoN = assay: MTT viability assay, CoN normal colon epithelial cell line; assay type: cell-based, human; conditions: 72 h of exposure, mean of six replicates of one experiment, read-out: IC50 Normal Cell Line (N) CoN
Procedure: as §1, §2

MMP-1, -2, -7, -9, -13 = assay: Luminex assay of MMP secretion in HCT-116 and LoVo cell supernatants; assay type: cell-based, human; conditions: 24 h, both cell lines (HCT-116, LoVo)
Text: (§3) We ordered a customized Luminex® assay to quantify 15 targets at once from Biotechne (reference LXSAHM-15; R&D Systems, Abingdon, U.K.). The 15 targets were chosen on the basis of the literature as follows: the relevant metalloproteinases MMP-1, -2, -7, -9, -13 [49] and the cytokines associated with dismal prognosis or shorter disease-free survival period: C-C motif chemokine ligand (CCL) -4, CCL-22, Flt-3 ligand, IL-1β, IL-2, IL-6, IL-8, interferon gamma (IFNγ), vascular endothelial growth factor (VEGF), and pentraxin-3 [50]. Samples were prepared as follows: HCT-116 or LoVo cells were seeded in 6-well plates and allowed to adhere and grow until they reached 70% confluency. The culture medium was replaced by 1.5 mL of culture medium containing only 0.5% of FBS with or without the compounds to be tested (NAR at 80 nM, LYC at 6 µM, and HAE at 6 µM). After 24 h of treatment, supernatants were collected, aliquoted, and kept frozen at −80 °C. Three independent series of samples were prepared. […] We thus decided to concentrate several aliquots of our supernatant samples by centrifugation of 500 µL of supernatant with Amicon Ultra 0.5 mL filters characterized by a 3 kDa cut-off (UFC500324; Millipore, Merck, Hoeilaart, Belgium) leading to a final volume of 150 µL (3.3 times concentrated). The Luminex® assay was conducted according to manufacturer’s recommendations. Data were collected on a Bioplex-200 (Bio-Rad, Temse, Belgium).

IL-8 = assay: Luminex assay of IL-8 in HCT-116 and LoVo cell supernatants; assay type: cell-based, human; conditions: 24 h
Text: as §3, with “Data were collected on a Bioplex-200 (Bio-Rad, Temse, Belgium).” left out

HCT-116^-/- = assay: MTT viability assay, HCT-116-/- (p53-null); assay type: cell-based, human; conditions: mean of six replicates of one experiment, read-out: IC50 Cancer Cell Lines (C) HCT-116-/-
Procedure: as §1, §2

LoVo = assay: MTT viability assay, LoVo; assay type: cell-based, human; conditions: 72 h of exposure, TP53 wild type, mean of six replicates of one experiment, read-out: IC50 Cancer Cell Lines (C) LoVo
Procedure: as §1, §2

HCT-116 cells [2] = assay: Invasion assay, Matrigel-coated Boyden chambers, HCT-116; assay type: cell-based, human; conditions: for cell invasion, % of vehicle control: 24 h, corrected for adherent cells
Procedure: Prior to seeding HCT-116 cells in the invasion chambers, the medium was removed and cells were washed twice with phosphate buffered saline and incubated in DMEM lacking FBS for 48 h before seeding at a density of 1 × 10^5 cells/well into the upper portion of Matrigel-coated invasion chambers (Corning Biocoat, Corning, NY, USA), as described previously by our group in [47, 48]. The upper portion of each chamber contained cells suspended in serum-free DMEM containing DMSO vehicle alone or increasing concentrations of the Amaryllidaceae alkaloids NAR, LYC, and HAE. […] The lower portion of each chamber contained DMEM supplemented with 10% FBS. The FBS served as a chemoattractant. A polyethylene terephthalate (PET) membrane, containing 8 μm pores and coated with Matrigel basement membrane matrix, separated the upper and lower portions of the invasion chamber. After 24 h, chambers were removed and the cells that had not invaded were removed from within the chamber using a cotton swab. The cells that had invaded through and adhered to the bottom of the PET membrane separating the chambers were fixed with methanol and stained with 0.5% crystal violet (Sigma-Aldrich, St. Louis, MO, USA). Five random images were taken of the bottom of each membrane using a Cytation 5 Cell Imaging Multi-Mode Reader (Winooski, VT, USA). The cells in each image were counted using Image J (NIH, Bethesda, MD, USA).
To correct for the inhibitory effects of the Amaryllidaceae alkaloids on cell proliferation, cells from the same biological repeat were seeded in parallel in 24-well tissue culture plates at a density of 1 × 10^5 cells/well in DMEM containing 5% FBS (the average of the FBS concentrations in the upper and lower chambers) and supplemented with vehicle or increasing concentrations of the alkaloids. These wells were not coated with Matrigel. The medium was removed, and the adherent cells were trypsinized and counted 24 h after treatment using a hemocytometer. To compare cell invasion across treatments, cell invasion was corrected for adherent cell proliferation and expressed as % vehicle control.

VEGF = assay: Luminex assay of VEGF in HCT-116 and LoVo cell supernatants; assay type: cell-based, human; conditions: 24 h, both cell lines
Text: as §3, with “Data were collected on a Bioplex-200 (Bio-Rad, Temse, Belgium).” left out

LoVo cells [3] = assay: Invasion assay, Matrigel-coated Boyden chambers, LoVo; assay type: cell-based, human; conditions: 6 µM, 24 h, corrected for adherent cells
HT-29 = assay: MTT viability assay, HT-29; assay type: cell-based, human; conditions: TP53 mutant, mean of six replicates of one experiment, read-out: IC50 Cancer Cell Lines (C) HT-29
Procedure: as §1, §2

[4] = tested on: Cancer Cell Lines (LoVo, HCT-116^+/+, HCT-116^-/-, HT-29, DLD-1); assay: MTT viability assay, mean over the five colon cancer cell lines and ratio to CoN; assay type: cell-based, human; conditions: for Ratio N/C: IC50 CoN / mean IC50 cancer cells
Procedure: as §1, §2

HCT-116 cells [5] = assay: Adhesion assay (crystal violet), HCT-116; assay type: cell-based, human; conditions: 0.08 µM, 15 h, 0.5% FBS, one experiment
Procedure: (§4) To evaluate the effects of the compounds on cell adhesion, 75000 HCT-116 or LoVo cells per well were seeded in 96-well flat-bottom plates in the presence or absence of each compound tested at three concentrations. In the first set of experiments, cells were allowed to adhere for 1, 5, 8, and 24 h and cultured with 10% FBS. Three independent experiments were performed each in sextuplicate to examine the time course of adhesion when grown with 10% FBS and increasing concentrations of each compound. In the second set of experiments cells were allowed to adhere for 15 h in a medium containing only 0.5% FBS to limit the contribution of proliferation to the results.
(§5) At the end of the incubation period, the plate was rinsed with phosphate buffered saline (PBS), fixed with 17.5% of formaldehyde at 4 °C for 15 min, and washed with deionized water twice before staining with 0.1% crystal violet (Sigma-Aldrich, Diegem, Belgium) in a 50:50 methanol/water mixture for 15 min. After extensive washes with water to remove any free crystal violet, the dye within the cells was extracted and solubilized in 100 µL of a 33% acetic acid solution and absorbance was measured at 570 nm (680XR, Bio-Rad Laboratories, Berkeley, CA, USA; reference wavelength 610 nm). The mean absorbance of the untreated control well was set at 100% for comparison. […]

LoVo cells [6] = assay: Adhesion assay (crystal violet), LoVo; assay type: cell-based, human; conditions: 0.08 µM, 15 h, 0.5% FBS, one experiment
Procedure: as §4, §5

[7] = tested on: HT-29 p53-deficient and HCT-116 p53 wild-type models; set-up: method as in PMID 21220492; conditions: cited from earlier work
[8] = Homo sapiens, DLD-1, 72 h of exposure
[9] = Homo sapiens, HCT-116, 72 h of exposure
[10] = Homo sapiens, HT-29, 72 h of exposure
[11] = Homo sapiens, after 72 h of exposure, regardless of TP53 status, read-out: IC50s against all cancer cell lines
[12] = Homo sapiens, mean over five cancer cell lines, MTT, 72 h, read-out: Mean IC50 Cancer Cells
[13] = mean over five cancer cell lines, MTT, 72 h, read-out: Mean IC50 Cancer Cells

SMILES | GI50 [1] [nM] | IC50 (DLD-1; [8]) [nM] | IC50 (HCT-116^+/+; [9]) [nM] | IC50 (CoN; Homo sapiens, Epithelial cell) [nM] | secretion of MMP-1, -2, and -7 (MMP-1, -2, -7, -9, -13; 6 µM) | IC50 (HCT-116^-/-; [9]) [nM] | IC50 (LoVo; Homo sapiens, LoVo) [nM] | IC50 (HT-29; [10]) [nM] | IC50 [4, 11] [nM] | IC50 [4, 12] [nM] | Ratio N/C [4] | IC50 (DLD-1; 72 h of exposure) [nM] | IC50 (HCT-116^+/+; 72 h of exposure) [nM] | IC50 (CoN) [nM] | IC50 (HCT-116^-/-; 72 h of exposure) [nM] | IC50 (LoVo) [nM] | IC50 (HT-29; 72 h of exposure) [nM] | IC50 [4, 13] [nM] | also measured
O[C@H]1[C@H]2c3cc4c(cc3CN3CCC(=C[C@@H]1O)[C@H]23)OCO4 [LYC, lycorine] | 1990 | 2900 | 1300 | 79000 | markedly decrease | 2600 | 5500 | 3900 | ~3000 | 3200 | 24 | – | – | – | – | – | – | – | IL-8 secretion (IL-8; LYC 6 µM, both cellular models): reduced; invasion of HCT-116 cells (HCT-116 cells [2]; 1.5 µM, not dose-dependent): reduced; VEGF levels, times decreased (VEGF; 6 µM): ≤ 10 times; residual invasion rate (LoVo cells [3]): 37.4 ± 7.8%
O=C1N[C@@H]2C(=C[C@H](O)[C@@H](O)[C@H]2O)c2cc3c(c(O)c21)OCO3 [NAR, narciclasine] | 45.7 | – | – | – | – | – | – | – | – | – | 32 | 30 | 23 | 1100 | 29 | 52 | 32 | 33 | inhibition of cell adhesion (HCT-116 cells [5]): 39%; secretion of MMP-1, -2, and -7 (MMP-1, -2, -7, -9, -13; 0.08 µM): markedly decrease; IL-8 levels (IL-8; HCT-116 cells, NAR 80 nM, in comparison to LYC): opposite effects; maximal inhibition of cell adhesion (LoVo cells [6]): 18%; cell invasion, % of vehicle control (HCT-116 cells [2]; 0.04 µM): 41.1 ± 4.3%; cell invasion, % of vehicle control (HCT-116 cells [2]; 0.08 µM): 13.6 ± 4.8%; VEGF levels, times decreased (VEGF; 0.08 µM): up to 5 times; times more potent than PANC ([4]; MTT IC50 comparison NAR vs PANC): 10 times
N.N.[Cl][Pt][Cl] [Cisplatin, cisplatin, reference compound] | – | – | – | – | – | – | – | – | – | – | 5 | 14800 | 4500 | 67000 | 17500 | 8400 | 22100 | 13500 | times less toxic toward non-cancerous cells ([4]; mean IC50s of cancer cell lines vs CoN cell line): 5 times
CO[C@@H]1C=C[C@@]23c4cc5c(cc4CN(C[C@@H]2O)[C@H]3C1)OCO5 [HAE, haemanthamine] | 15800 | 2400 | 1900 | 85000 | markedly decrease | 2200 | 4600 | 2500 | ~3000 | 2700 | 31 | – | – | – | – | – | – | – | –
O=C1N[C@H]2[C@H](O)[C@H](O)[C@@H](O)[C@H](O)[C@@H]2c2cc3c(c(O)c21)OCO3 [PANC, pancratistatin] | 263 | 280 | 170 | 2400 | – | 160 | 590 | 300 | – | 300 | 8 | – | – | – | – | – | – | – | IC50 [7]: 100 nM

— article PMC9496155, “Amaryllidaceae Alkaloids Decrease the Proliferation, Invasion, and Secretion of Clinically Relevant Cytokines by Cultured Human Colon Cancer Cells” (Biomolecules, 2022)
